We go through seven molecules from patent US11560417B2, “Isolated polypeptides of CD44 and uses thereof” (Yissum Research Development Company of the Hebrew …, priority 2014, dated 2023).

One series relates to C57BL/6 mice. In words: Delayed type hypersensitivity (DTH) response to oxazolone. Format: in vivo, mouse. The following applies: oxazolone sensitization day 0, elicitation day 6, reading day 7; peptide 200 μg daily. As for the experimental part:
DTH model—C57BL/6 mice were painted at their abdomen with oxazolone solution (sensitization). On day 6, the right ear of each mouse was painted with the same hapten, oxazolone (elicitation), to generate delayed type hypersensitivity (DTH) response. The differences in thickness between the right and the left ears, indicating DTH development, were determined by microcaliper 24 hours later. DTH induction indicates a normal immune response. For additional details see Weiss et al., (2000) Proc. Natl. Acad. Sci. USA. 97, 285-290.
Treatment protocol—PBS and 5-mer peptide (SEQ ID NO: 1) at a dose of 200 μg was administered one day before the sensitization and then every day during the sensitization period (7 days).

Series [1] concerns CIA mice on C57BL/6 background. In words: ELISA for neutralizing anti-peptide antibodies in serum of treated CIA mice. It counts as in vivo, mouse. The conditions noted are these: 70 μg per injection i.p., 10 consecutive days; ELISA plates coated with peptide. As for the experimental part:
Treatment protocol—PBS, or 5-mer RA peptide (SEQ ID NO: 1) at a dose of 70 μg per injection were administered i.p to CIA mice on C57BL/6 background for 10 consecutive days. In all groups first injection was given at the onset of disease as determined by paw swelling.
ELISA—96 wells ELISA plates were coated with 5-mer RA peptide (SEQ ID NO: 1), collagen or immunoglobulin (positive control). Serum from CIA mice treated with PBS or the 5-mer RA peptide was added to the coated plates and the presence of neutralizing antibodies against collagen or the RA peptide was detected with anti-immunoglobulin+detection system. The plate wells were coated with 1 mg/ml peptide or protein. Mouse serum was added to the plate wells for 15 hours in cold temperature. The detection system included HRP-anti-mouse IgG and TMB (Bako) substrate. Plates were analysed using an ELISA reader at a wave length of 450 nm.
For orientation: In an ELISA, binding on a coated surface is turned into a signal by an enzyme label.

Series [2] concerns fibroblasts from the inflammatory joint of an RA patient. Format: cell-based, human. Here is the method: Cells—Fibroblasts from the inflammatory joint of an RA patient were cultured and maintained as shown in Bendersky et al, J Immunol.; 188:4349-59, 2012. A quantity of 20,000 cells was added to each one of the 96 well plates with the indicated concentrations of peptide, serum amyloid A or α-lactalbumin.
MTT assay—MTT assay was effected as shown in Madhyastha et al. (2015) J Clin Diagn Res.; 9 :ZCO5-8.
An in-vitro model was developed as a tool to evaluate the biological activity of the generated RA peptides. To this end, fibroblasts from the inflammatory joint of an RA patient were incubated in-vitro and the effect of the peptides on cell survival was evaluated by a MTT assay.

Series [3] relates to CIA mice on DBA/1 background. The series can be described thus: Paw swelling in collagen-induced arthritis (CIA) mice on DBA/1 background. The following applies: for paw swelling response vs PBS: 4 times within 6 days from onset of disease; for joint inflammation (paw swelling) vs PBS / hind paws that remained healthy (paw swelling less than 2 mm): 200 μg per injection i.p.; for joint inflammation (paw swelling) vs PBS: daily for 9-10 days from onset of disease; for hind paws that remained healthy (paw swelling less than 2 mm): daily for 9 days, CIA DBA/1 mice. It counts as in vivo, mouse. Here is the method:
(§1) Mice—Collagen-induced arthritis (CIA) was generated in DBA/1 or C57BL mice by injection of type II collagen as described in Nedvetzki et al., PNAS 101, 18081-18086, 2004.
Treatment protocol—PBS, or the 9-mer RA peptide (SEQ ID NO: 3) at a dose of 25 μg, 100 μg or 150 μg per injection was administered i.p to CIA mice for 4 times within 6 days (see Table 3 below). PBS (n=7), or 5-mer RA peptide (SEQ ID NO: 1, n=7) at a dose of 70 μg per injection were administered i.p to CIA mice on C57BL/6 background for 10 consecutive days. In all groups first injection was given at the onset of disease as determined by paw swelling.
(§2) Evaluation of joint inflammation—Inflammation was evaluated by the paw swelling response. Paw swelling was measured by micro caliber. Paw swelling at range of 2.1-2.3 mm was considered “onset of disease” and the starting point for injection of the peptides. […] All measurements were performed under blind manner (For additional details see Nedvetzki, et al., (2004) PNAS 101, 18081-18086).
(§3) Treatment protocol—PBS, or the tested peptides [Ac-TRMTADVDR-NH2 (SEQ ID NO: 6), Ac-MTADVDR-NH2 (SEQ ID NO: 5), Ac-MTADV-NH2 (SEQ ID NO: 4) and scrambled Ac-TMDVADR-NH2 (SEQ ID NO: 7)] at doses of 70 or 200 μg per injection were administered i.p to […] for 9-10 consecutive days (see Tables 4-7 below). As a non-specific control, several mice were administered I.P. with Dexamethsone (Dex) at a dose of 50 μg, following the same protocol. In all groups first injection was given at the onset of disease as determined by paw swelling.
Evaluation of joint inflammation—As described in Example 2 above. Paw swelling of less than 2 mm was considered healthy.

For series [4], the system named is CIA mice on C57BL/6 background. The series can be described thus: Paw/footpad swelling in CIA mice on C57BL/6 background. Format: in vivo, mouse. The conditions noted are these: 10 consecutive days; for joint inflammation (paw swelling) vs PBS: 70 μg per injection i.p. Here is the method: as §1, §2, §3
Treatment protocol—PBS, or the tested peptide [Ac-MTADV-NH2 (SEQ ID NO: 4)] at doses of 10, 25, 70, 200 or 600 μg per injection were administered i.p to CIA mice for 10 consecutive days (see Tables 8-9 below). In all groups first injection was given at the onset of disease as determined by paw swelling.
To evaluate the optimal anti-inflammatory therapeutic dose of the 5-mer RA peptide, several different doses of the protected peptide (SEQ ID NO: 4) were administered to CIA mice on C57BL/6 background and joint inflammation was determined by footpad swelling measurements (electronic automatic measurements of the volume of the footpad, based on Archimedes observation).

Ends that are not written are not given here. Peptide text beside a SMILES is read from it.

Turning to `CSCC[C@H](N)C(=O)N[C@H](C(=O)N[C@@H](C)C(=O)N[C@@H](CC(=O)O)C(=O)N[C@H](C(=O)O)C(C)C)[C@@H](C)O` [5-mer RA peptide, MTADV] (H-MTADV-OH), in the series with C57BL/6 mice, the “DTH response (difference in thickness between right and left ears) vs PBS” value is listed as “did not affect the DTH response”. Further, the “neutralizing antibodies to the peptide in serum” value in series [1] is “no neutralizing antibodies”. Further, in series [2], the “in-vitro maximal suppressive effect on cell survival” value is 60%.

For “TRMTADVDR (not fully specified (C-terminus)) [9-mer RA peptide]”, the “paw swelling response vs PBS” value in series [3] (25 μg per injection i.p.) was “did not show significant difference in paw swelling response”; in series [3] (100 μg per injection i.p.) it was “did not show significant difference in paw swelling response”; in series [3] (150 μg per injection i.p.), “significant reduction in paw swelling”.

For “Ac-MTADVDR-NH2 [7-mer protected RA peptide]”, in series [3], the “joint inflammation (paw swelling) vs PBS” value is recorded as “reduces joint inflammation” and the “hind paws that remained healthy (paw swelling less than 2 mm)” value is on record as “more than 60%”.

In the case of “Ac-MTADV-NH2 [5-mer protected RA peptide]”, the “joint inflammation (paw swelling) vs PBS” value in series [3] was “reduces joint inflammation”; in series [4] it was “reduced the joint inflammation”; in series [4] (listed as 5-mer protected peptide) it was “significantly inhibit joint inflammation”. Also, the “joint inflammation (footpad swelling) vs PBS” value in series [4] (10 μg per injection i.p.) is “did not induce a significant anti-inflammatory effect”; in series [4] (25 μg per injection i.p.), “did not induce a significant anti-inflammatory effect”; in series [4] (200 μg per injection i.p.), “reduced the joint inflammation”; in series [4] (600 μg per injection i.p.), “reduced the joint inflammation”. In addition, the “optimal and lowest dose for CIA inhibition” value in series [4] (doses 10-600 μg i.p.) worked out at 70 μg per injection. Moreover, the “suppressive effect on cell survival compared to the 5-mer RA peptide (SEQ ID NO: 1)” value in series [2] (MTT assay) is “improved the suppressive effect”.

Consider “Ac-TRMTADVDR-NH2 [9-mer protected RA peptide]”, for which the “joint inflammation (paw swelling) vs PBS” value in series [3] is given as “reduce joint inflammation”.

Regarding Ac-TMDVADR-NH2 [reference compound], in series [3], the “joint inflammation (paw swelling) vs PBS” value is “no effect on footpad swelling” and the “hind paws that remained healthy (paw swelling less than 2 mm)” value stood at 33%.

B1: Serum Amyloid A (SAA): Serum Amyloid A protein added to the fibroblast culture in combination with the 5-mer peptide (protein)
chain: RSFFSFLGEAFDGARDMWRAYSDMREANYIGSDKYFHARGNYDAAKRGPGGAWAAEVITDARENIQRFFGHGAEDSLADQAANEWGRSGKDPNHFRPAGLPEKY
In the case of B1, the “effect on the 5-mer peptide's inhibition of cell survival” value in series [2] (50 μg/ml added in combination with the 5-mer peptide) is given as “prevents this inhibition”. Also, the “effect on the 5-mer peptide's reduction of fibroblast survival” value in series [2] (escalating concentrations, 5-mer peptide constant at 25 μg/ml) is given as “gradually prevented this reduction”.
